The text below walks through data of patent US20240034737A1, “Heterocyclic Derivatives as P2X7 Receptor Antagonists” (BREYE THERAPEUTICS APS, priority 2020, published 2024).

One assay has as its target P2X7 receptor (Homo sapiens (Human), UniProt Q99572). The experiment in a line: Human P2X7 channel calcium-influx assay (Fluo-8 NW, FLIPR TETRA, Bz-ATP stimulation). The class given is cell-based. As to conditions: HEK-293 cells stably transfected with P2X7 receptor, Low Divalent Cation Assay Buffer, read-out: hP2X7 IC50. Here is the method:
(§1) Extracellular binding of Bz-ATP to P2X7 receptor opens the channel and allows Ca^2+ influx into the cells. This Ca^2+ entry was measured in HEK-293 cells stably transfected with P2X7 receptor using Screen Quest™ Fluo-8 No Wash Calcium Assay Kit (AAt Bioquest®, cat. 36316). Once inside the cell, the lipophilic blocking groups of Fluo-8 are cleaved by non-specific cell esterases, resulting in a negatively-charged fluorescent dye that stays inside cells. Its fluorescence increases upon binding to calcium. When HEK-293/P2X7 cells are stimulated with Bz-ATP, Ca^2+ enters the cells and the fluorescence of Fluo-8 NW increases.
(§2) HEK-293 cells stably transfected with P2X7 receptor were seeded overnight in growth medium at 10,000 to 20,000 cells/well in 384-well plate. 24 hours later, the medium was removed, and the cells were pre-loaded at RT for 1 hour with 20 μL/w of Fluo-8 NW. Then 10 μL/w of test compounds and reference antagonist A438079 at 3X-concentration were injected with the […] and the kinetic response over a period of five minutes was monitored.

A further assay has as its target mP2X7 (Mus musculus (Mouse), UniProt Q9Z1M0). Briefly: mP2X7 channel calcium-influx assay (Fluo-8 NW, FLIPR TETRA, Bz-ATP stimulation). In kind it is cell-based. On the procedure: as §1, §2

Chain of P2X7 receptor (Q99572 whole entry): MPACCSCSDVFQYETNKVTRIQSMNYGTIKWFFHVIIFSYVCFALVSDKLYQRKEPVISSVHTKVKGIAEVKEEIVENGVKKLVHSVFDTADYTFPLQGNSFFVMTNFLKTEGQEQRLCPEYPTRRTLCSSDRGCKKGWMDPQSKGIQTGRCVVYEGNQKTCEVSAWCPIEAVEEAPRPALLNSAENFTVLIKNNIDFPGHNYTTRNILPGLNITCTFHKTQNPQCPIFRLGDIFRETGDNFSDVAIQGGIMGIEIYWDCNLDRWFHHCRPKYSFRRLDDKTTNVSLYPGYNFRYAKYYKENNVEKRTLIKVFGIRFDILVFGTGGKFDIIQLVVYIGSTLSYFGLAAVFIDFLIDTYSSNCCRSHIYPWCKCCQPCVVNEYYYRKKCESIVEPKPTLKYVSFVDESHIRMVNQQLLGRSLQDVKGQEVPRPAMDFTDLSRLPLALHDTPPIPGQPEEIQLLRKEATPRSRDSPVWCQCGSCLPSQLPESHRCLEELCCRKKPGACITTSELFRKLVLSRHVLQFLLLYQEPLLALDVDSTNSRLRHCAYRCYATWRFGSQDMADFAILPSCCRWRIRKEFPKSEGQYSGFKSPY
Chain of mP2X7 (Q9Z1M0 whole entry): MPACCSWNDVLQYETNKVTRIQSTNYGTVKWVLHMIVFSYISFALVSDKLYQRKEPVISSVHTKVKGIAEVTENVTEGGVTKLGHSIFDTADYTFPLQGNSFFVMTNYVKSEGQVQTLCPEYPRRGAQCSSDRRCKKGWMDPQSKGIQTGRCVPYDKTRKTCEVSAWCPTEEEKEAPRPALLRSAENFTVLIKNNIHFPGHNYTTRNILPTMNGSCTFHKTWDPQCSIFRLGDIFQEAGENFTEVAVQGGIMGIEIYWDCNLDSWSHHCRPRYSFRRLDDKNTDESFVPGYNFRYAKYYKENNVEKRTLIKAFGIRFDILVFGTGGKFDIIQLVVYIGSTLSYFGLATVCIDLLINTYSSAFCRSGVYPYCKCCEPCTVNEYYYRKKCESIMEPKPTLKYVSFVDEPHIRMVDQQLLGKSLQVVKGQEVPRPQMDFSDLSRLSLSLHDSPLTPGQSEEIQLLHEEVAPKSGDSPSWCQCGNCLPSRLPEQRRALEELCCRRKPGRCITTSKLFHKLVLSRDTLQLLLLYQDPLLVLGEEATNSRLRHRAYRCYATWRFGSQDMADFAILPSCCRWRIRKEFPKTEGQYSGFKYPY

In general, IC50 refers to the concentration that inhibits the measured activity by half. As for `Cc1ccc(OC2CCN(C(CNC(=O)c3c(F)cccc3Cl)c3scnc3C(F)F)CC2)nn1` (stereo not drawn) [Example 29, 2-Chloro-N-{2-[4-(difluoromethyl)-1,3-thiazol-5-yl]-2-{4-[(6-methylpyridazin-3-yl)oxy]piperidin-1-yl}ethyl}-6-fluorobenzamide], the IC50 at P2X7 receptor stood at 31.7 nM; at mP2X7 it was 87.6 nM.

With `Cc1c(F)ncnc1OCC1CCN(C(CNC(=O)c2c(F)cccc2Cl)c2scnc2C(F)F)CC1` (stereo not drawn) [Example 113, 2-Chloro-N-{2-[4-(difluoromethyl)-1,3-thiazol-5-yl]-2-(4-{[(6-fluoro-5-methylpyrimidin-4-yl)oxy]methyl}piperidin-1-yl)ethyl}-6-fluorobenzamide], the IC50 at P2X7 receptor stood at 38.5 nM; on mP2X7, 17.5 nM.

As for `O=C(NCC(c1scnc1C(F)F)N1CCC(Oc2cc(C(F)(F)F)ncn2)CC1)c1c(F)cccc1Cl` (stereo not drawn) [Example 43, 2-Chloro-N-{2-[4-(difluoromethyl)-1,3-thiazol-5-yl]-2-(4-{[6-(trifluoromethyl)pyrimidin-4-yl]oxy}piperidin-1-yl)ethyl}-6-fluorobenzamide], the IC50 on P2X7 receptor came out at 69.2 nM; at mP2X7, 63.9 nM.

`N#Cc1ccncc1OCC1CCN(C(CNC(=O)c2c(F)cccc2Cl)c2scnc2C(F)F)CC1` (stereo not drawn) [Example 111, 2-Chloro-N-[2-(4-{[(4-cyanopyridin-3-yl)oxy]methyl}piperidin-1-yl)-2-[4-(difluoromethyl)-1,3-thiazol-5-yl]ethyl]-6-fluorobenzamide]: the IC50 at P2X7 receptor worked out at 22.5 nM; on mP2X7 it was 16.1 nM.

As to `O=C(NCC(c1scnc1C(F)F)N1CCC(COc2ccnc(F)n2)CC1)c1c(F)cccc1Cl` (stereo not drawn) [Example 107, 2-Chloro-N-{2-[4-(difluoromethyl)-1,3-thiazol-5-yl]-2-(4-{[(2-fluoropyrimidin-4-yl)oxy]methyl}piperidin-1-yl)ethyl}-6-fluorobenzamide], the IC50 at P2X7 receptor turned out to be 55.2 nM; on mP2X7, 24.2 nM.

In the case of `Cc1ncnc(OC2CCN(C(CNC(=O)c3c(F)cccc3Cl)c3scnc3C(F)F)CC2)c1F` (stereo not drawn) [Example 56, 2-Chloro-N-{2-[4-(difluoromethyl)-1,3-thiazol-5-yl]-2-{4-[(5-fluoro-6-methylpyrimidin-4-yl)oxy]piperidin-1-yl}ethyl}-6-fluorobenzamide], the IC50 turned out to be 53.8 nM at P2X7 receptor and 82 nM at mP2X7.

Turning to `Cc1nc(C)c(F)c(OC2CCN(C(CNC(=O)c3c(F)cccc3Cl)c3scnc3C(F)F)CC2)n1` (stereo not drawn) [Example 67, 2-Chloro-N-{2-[4-(difluoromethyl)-1,3-thiazol-5-yl]-2-{4-[(5-fluoro-2,6-dimethylpyrimidin-4-yl)oxy]piperidin-1-yl}ethyl}-6-fluorobenzamide], the IC50 on P2X7 receptor worked out at 62.3 nM; at mP2X7, 64.5 nM.

Take `Cc1nsc(OC2CCN(C(CNC(=O)c3c(F)cccc3Cl)c3scnc3C(F)F)CC2)c1C#N` (stereo not drawn) [Example 53, 2-Chloro-N-(2-{4-[(4-cyano-3-methyl-1,2-thiazol-5-yl)oxy]piperidin-1-yl}-2-[4-(difluoromethyl)-1,3-thiazol-5-yl]ethyl)-6-fluorobenzamide]: the results for the IC50 at P2X7 receptor and at mP2X7 were 41.5 nM and 38.7 nM, respectively.

With `O=C(NCC(c1scnc1C(F)F)N1CCC(Oc2ccc(F)cn2)CC1)c1c(F)cccc1Cl` (stereo not drawn) [Example 30, 2-Chloro-N-{2-[4-(difluoromethyl)-1,3-thiazol-5-yl]-2-{4-[(5-fluoropyridin-2-yl)oxy]piperidin-1-yl}ethyl}-6-fluorobenzamide], the IC50 at P2X7 receptor is 17.3 nM; on mP2X7, 24 nM.

For `Cc1cnc(OCC2CCN(C(CNC(=O)c3c(F)cccc3Cl)c3scnc3C(F)F)CC2)nc1` (stereo not drawn) [Example 100, 2-Chloro-N-{2-[4-(difluoromethyl)-1,3-thiazol-5-yl]-2-(4-{[(5-methylpyrimidin-2-yl)oxy]methyl}piperidin-1-yl)ethyl}-6-fluorobenzamide], the results for the IC50 at P2X7 receptor and on mP2X7 were 37.8 nM and 66.7 nM, respectively.

Consider `O=C(NCC(c1scnc1C(F)F)N1CCC(Oc2ncccn2)CC1)c1c(F)cccc1Cl` (stereo not drawn) [Example 4, 2-chloro-N-{2-[4-(difluoromethyl)-1,3-thiazol-5-yl]-2-[4-(pyrimidin-2-yloxy)piperidin-1-yl]ethyl}-6-fluorobenzamide], for which the IC50 at P2X7 receptor was 58.2 nM; at mP2X7, 408 nM.

On to `O=C(NCC(c1scnc1C(F)F)N1CCC(COc2cc(F)ccn2)CC1)c1c(F)cccc1Cl` (stereo not drawn) [Example 126, 2-chloro-N-{2-[4-(difluoromethyl)-1,3-thiazol-5-yl]-2-(4-{[(4-fluoropyridin-2-yl)oxy]methyl}piperidin-1-yl)ethyl}-6-fluorobenzamide], for which the results for the IC50 on P2X7 receptor and at mP2X7 were 36.5 nM and 34.7 nM, respectively.

Take `O=C(NCC(c1scnc1C(F)F)N1CCC(Oc2nc3ccccc3s2)CC1)c1c(F)cccc1Cl` (stereo not drawn) [Example 20, N-{2-[4-(1,3-Benzothiazol-2-yloxy)piperidin-1-yl]-2-[4-(difluoromethyl)-1,3-thiazol-5-yl]ethyl}-2-chloro-6-fluorobenzamide]: the IC50 worked out at 17.5 nM at P2X7 receptor and 14 nM at mP2X7.

On to `O=C(NCC(c1scnc1C(F)F)N1CCC(Oc2cncc(F)n2)CC1)c1c(F)cccc1Cl` (stereo not drawn) [Example 33, 2-Chloro-N-{2-[4-(difluoromethyl)-1,3-thiazol-5-yl]-2-{4-[(6-fluoropyrazin-2-yl)oxy]piperidin-1-yl}ethyl}-6-fluorobenzamide], for which the IC50 on P2X7 receptor came to 39.9 nM; at mP2X7, 52.5 nM.

As for `N#Cc1ccncc1OC1CCN(C(CNC(=O)c2c(F)cccc2Cl)c2scnc2C(F)F)CC1` (stereo not drawn) [Example 38, 2-Chloro-N-(2-{4-[(4-cyanopyridin-3-yl)oxy]piperidin-1-yl}-2-[4-(difluoromethyl)-1,3-thiazol-5-yl]ethyl)-6-fluorobenzamide], the IC50 at P2X7 receptor was found to be 57.5 nM; at mP2X7, 79.6 nM.

As for `O=C(NCC(c1scnc1C(F)F)N1CCC(COc2nnnn2-c2ccccc2)CC1)c1c(F)cccc1Cl` (stereo not drawn) [Example 97, 2-Chloro-N-{2-[4-(difluoromethyl)-1,3-thiazol-5-yl]-2-(4-{[(1-phenyl-1H-1,2,3,4-tetrazol-5-yl)oxy]methyl}piperidin-1-yl)ethyl}-6-fluorobenzamide], the IC50 at P2X7 receptor came to 34 nM; on mP2X7, 13.8 nM.

Consider `O=C(NCC(c1scnc1C(F)F)N1CCC(Oc2cc(F)ncn2)CC1)c1c(F)cccc1Cl` (stereo not drawn) [Example 31, 2-Chloro-N-{2-[4-(difluoromethyl)-1,3-thiazol-5-yl]-2-{4-[(6-fluoropyrimidin-4-yl)oxy]piperidin-1-yl}ethyl}-6-fluorobenzamide], for which the IC50 at P2X7 receptor came to 61.2 nM; at mP2X7, 136 nM.

Turning to `O=C(NCC(c1scnc1C(F)F)N1CCC(Oc2ncccc2Cl)CC1)c1c(F)cccc1Cl` (stereo not drawn) [Example 47, 2-Chloro-N-(2-{4-[(3-chloropyridin-2-yl)oxy]piperidin-1-yl}-2-[4-(difluoromethyl)-1,3-thiazol-5-yl]ethyl)-6-fluorobenzamide], the IC50 on P2X7 receptor turned out to be 31 nM; on mP2X7, 43.9 nM.

Regarding `N#Cc1cnccc1OC1CCN(C(CNC(=O)c2c(F)cccc2Cl)c2scnc2C(F)F)CC1` (stereo not drawn) [Example 50, 2-Chloro-N-(2-{4-[(3-cyanopyridin-4-yl)oxy]piperidin-1-yl}-2-[4-(difluoromethyl)-1,3-thiazol-5-yl]ethyl)-6-fluorobenzamide], the IC50 at P2X7 receptor amounted to 89 nM; on mP2X7 it was 224 nM.

`O=C(NCC(c1scnc1C(F)F)N1CCC(COc2nc(Cl)cs2)CC1)c1c(F)cccc1Cl` (stereo not drawn) [Example 83, 2-Chloro-N-[2-(4-{[(4-chloro-1,3-thiazol-2-yl)oxy]methyl}piperidin-1-yl)-2-[4-(difluoromethyl)-1,3-thiazol-5-yl]ethyl]-6-fluorobenzamide]: the IC50 at P2X7 receptor was determined as 13 nM; at mP2X7, 32.7 nM.

On to `O=C(NCC(c1scnc1C(F)F)N1CCC(COc2cc(C(F)(F)F)ncn2)CC1)c1c(F)cccc1Cl` (stereo not drawn) [Example 115, 2-Chloro-N-{2-[4-(difluoromethyl)-1,3-thiazol-5-yl]-2-[4-({[6-(trifluoromethyl)pyrimidin-4-yl]oxy}methyl)piperidin-1-yl]ethyl}-6-fluorobenzamide], for which the IC50 at P2X7 receptor came to 74.5 nM; on mP2X7, 44.3 nM.

With `O=C(NCC(c1scnc1C(F)F)N1CCC(Oc2cccnn2)CC1)c1c(F)cccc1Cl` (stereo not drawn) [Example 71, 2-Chloro-N-{2-[4-(difluoromethyl)-1,3-thiazol-5-yl]-2-[4-(pyridazin-3-yloxy)piperidin-1-yl]ethyl}-6-fluorobenzamide], the IC50 on P2X7 receptor is 58.9 nM; at mP2X7, 222 nM.

Turning to `O=C(NCC(c1scnc1C(F)F)N1CCC(Oc2cccc(F)n2)CC1)c1c(F)cccc1Cl` (stereo not drawn) [Example 72, 2-Chloro-N-{2-[4-(difluoromethyl)-1,3-thiazol-5-yl]-2-{4-[(6-fluoropyridin-2-yl)oxy]piperidin-1-yl}ethyl}-6-fluorobenzamide], the concentration for half-maximal inhibition (IC50) stood at 11.9 nM at P2X7 receptor and 29.4 nM on mP2X7.

`O=C(NCC(c1scnc1C(F)F)N1CCC(Oc2nc(Cl)cs2)CC1)c1c(F)cccc1Cl` (stereo not drawn) [Example 12, 2-Chloro-N-(2-{4-[(4-chloro-1,3-thiazol-2-yl)oxy]piperidin-1-yl}-2-[4-(difluoromethyl)-1,3-thiazol-5-yl]ethyl)-6-fluorobenzamide]: the IC50 at P2X7 receptor turned out to be 11.8 nM; at mP2X7 it was 43.9 nM.
